We go through 13 compounds from paper PMC11767801, “Purine but Not Pyrimidine De Novo Nucleotide Biosynthesis Inhibitors Strongly Enhance the Antiviral Effect of Corresponding Nucleobases Against Dengue Virus” (Molecules, 2025).

Data set [1] is described as follows: Cell viability assay (MTS). It counts as cell-based. To be noted: hamster. On the procedure:
(§1) The following cell lines were used in this study: (i) Huh7 was purchased from JCRB Cell Bank (Seikisui XenoTech, Kansas City, MO, USA) and cultured in Minimum Essential Medium (MEM) supplemented with 10% fetal bovine serum (FBS), and 1× non-essential amino acids (NEAA), 1 mM sodium pyruvate, 100 IU penicillin/streptomycin per mL, 5 µg/mL plasmocin (InvivoGen, San Diego, CA, USA), 1× GlutaMAX, and (ii) BHK pD2-hRucPac-2ATG30 DENV replicon cells were a gift from M. Diamond (Washington University School of Medicine) and cultured in Dulbecco’s modified Eagle’s medium (DMEM) supplemented with 10% FBS, 100 IU penicillin/streptomycin per mL, 5 µg/mL plasmocin, 1× GlutaMAX, and 3 µg/mL puromycin (InvivoGen). (iii) A549 Ace2 TMPRSS2 cells were provided by M. Saeed (Boston University) and grown in DMEM supplemented with 10% FBS, 100 IU penicillin/streptomycin per mL, 10 mM HEPES, 1× NEAA, 1× GlutaMAX, 1 mM sodium pyruvate, 5 µg/mL plasmocin, 0.5 µg/mL puromycin, and 0.5 µg/mL blasticidin (InvivoGen).
(§2) Cell viability assays were performed as described in [9, 10, 23]. Briefly, DENV replicon cells were plated at 1500–2000 cells per well of a 96-well dish plate (Corning, NY, USA) the day before use. The next day, compounds were added and cells incubated at 37 °C, 5% CO2, in a humidified incubator for three days. The cells were washed with phosphate-buffered saline (PBS) and incubated with the MTS reagent (Promega G5430, Madison, WI, USA) as per the manufacturer’s instructions. The plates were read at a 490 nm wavelength at 30 min intervals in a BioTek (Winooski, VT, USA) Neo2 plate reader.

For another data set, the system named is DENV replicon. In words: DENV replicon cell assay (Renilla luciferase). It counts as cell-based, Dengue virus (DENV). The note with it: for EC50: Dengue virus; for potentiation of anti-replicon activity (in words): purine nucleobase combined with 6MMPR and/or 6MMPR prodrugs. On the procedure:
as §1
The DENV replicon assay was performed as described. Briefly, DENV replicon cells were plated at 1500–2000 cells per well […] of a 96-well dish (Corning, USA) plate the day before use. The next day, compounds were added and cells incubated at 37 °C, 5% CO2, in a humidified incubator for three days. The cells were the washed with PBS and Complete Promega Renilla reagent was added (Promega E2720, Madison, USA, 1 µL Renilla-Glo Substrate + 99 µL Renilla-Glo Buffer + 100 µL phenol-red-free DMEM supplemented with 10% FBS per well). Cells were lysed for 10 min at room temp and 160 µL of lysate per well was transferred to wells of a 96-well opaque white plate (Falcon 353296, Corning, USA), and luminescence was measured using a BioTek (Winooski, USA) Neo2 plate reader.

The subject of data set [2] is ZIKV PAN1 Nluc reporter virus. In words: ZIKV nanoluc reporter virus assay in A549 Ace2 TMPRSS2 cells. It counts as cell-based, Zika virus (ZIKV). To be noted: three days. On the procedure:
(§3) Figure 5 Flavivirus inhibition by the nucleobase 2-thiouracil (2SU) and the corresponding nucleoside 2-thiouridine (2SUridine). (A) Dose–response assay for inhibition of a ZIKV nanoluc reporter. Cells were inoculated with reporter virus for two hours, washed, and then compound-added. Three days later, cells were lysed, and the luciferase activity was analyzed. (B) DENV-induced cytopathic effects in compound-treated cells. Cells were inoculated with DENV for two hours, washed, and compound-added for five days. A neutral red assay was performed to determine cell viability. (C) Same as in (B), except the cells are not treated with virus. NITD = NITD008 a positive-control DENV inhibitor.
The following viruses were used in this study: (i) ZIKV PAN1 Nluc reporter virus has a nanoluc gene inserted into the viral genome as described. The virus was propagated and virus preps tittered as described. (ii) DENV type 2 New Guinea C strain (VR-1584) was obtained from ATCC (Manassas, VA, USA) and propagated in C6/36 mosquito cells as described.
The ZIKV nanoluc reporter virus assay was performed as described. Briefly, A549 Ace2 TMPRSS2 cells were plated into 96-well plates at 15,000 per well the night before use. […] The luciferase levels were measured using a Neo 2 plate reader (BioTek, Winooski, USA).

Data set [3] deals with DENV type 2 New Guinea C strain. In words: DENV CPE assay in Huh7 cells (neutral red). The note with it: five days. It counts as cell-based, Dengue virus (DENV). The protocol:
as §3
The following viruses were used in this study: (i) ZIKV PAN1 Nluc reporter virus has a nanoluc gene inserted into the viral genome as described. The virus was propagated and virus preps tittered as described. […]
Huh7 cells were plated into 96-well plates at 10,000 cells per well the day before use. […] The compounds were removed, and the viability of the cells was measured using a neutral red staining assay. […] Neutral red destain buffer (50% ethanol, 49% H2O, and 1% glacial acetic acid) was added at 100 µL per well and the plates were read at 540 nm in a Molecular Device (San Jose, CA, USA) M5e plate reader.

Data set [4] concerns DENV replicon cells (BHK pD2-hRucPac-2ATG30). In words: Cell viability assay (MTS). It counts as cell-based. The note with it: nucleobase combined with potentiators (6MMPR and prodrugs). On the procedure: as §1, §2
In a further data set the test system is DENV. Also on record: method as in PMID 29672522. The note with it: cited from earlier work.
[5] abbreviates: compound alone, DENV replicon cells, MTS, three days.
Setting [6] is: 72 h, compound alone, DENV BHK replicon cells, luciferase, three days.
The mark [7] stands for this setting: Table 3, nucleobase dose-response plus vehicle (DMSO).
Where [8] appears, read: nucleobase dose-response +6MMPR 0.065 μM.
Where [9] appears, read: nucleobase dose-response +Prdg 1 0.09 μM.
Where [10] appears, read: nucleobase dose-response +Prdg 2 1.5 μM.
[11] abbreviates: nucleobase dose-response +Prdg 3 1.4 μM.
Setting [12] is: 72 h, Table 3, nucleobase dose-response plus vehicle (DMSO).

“Also recorded” adds a separate entry of the source. Like-named read-outs stand apart in the source and are kept apart here.

What is called CC50 is the concentration giving 50% cytotoxicity. As a reminder, the EC50 is the concentration that produces a half-maximal response. In turn, `CSc1ncnc2c1ncn2[C@@H]1O[C@H](COC(=O)C(C)C)[C@@H](OC(=O)C(C)C)[C@H]1OC(=O)C(C)C` [Prdg 1] showed a CC50 at 3 days in data set [1] (setting [5]) of 2.6 µM. The compound further registered an EC50 in the data set on DENV replicon (setting [6]) of 0.26 µM.
The matching figures for `Cc1c(-c2ccc(-c3ccccc3F)cc2)nc2ccc(F)cc2c1C(=O)O` [Brequinar]: 4.5 µM and 3 µM.
The matching figures for `O=c1[nH]cc(F)c(=O)[nH]1` [5-fluorouracil]: 0.93 µM and 0.74 µM.
Consider `NC(=O)c1nc(F)c[nH]c1=O` [Favipiravir], for which the CC50 at 3 days in data set [1] (setting [7]), in data set [1] (setting [5]), in data set [1] (setting [8]), in data set [1] (setting [9]), in data set [1] (setting [10]) and in data set [1] (setting [11]) was > 500 µM each time. Besides, the concentration giving a half-maximal response (EC50) in the data set on DENV replicon (setting [12]) was 128 µM; in the data set with DENV replicon (setting [6]), 114 µM; in the data set with DENV replicon (setting [8]), 63 µM; in the data set with DENV replicon (setting [9]), 51 µM; with DENV replicon (setting [10]), 47 µM; with DENV replicon (setting [11]), 46 µM. Besides, the “potentiation of anti-replicon activity (in words)” value (from here on “potentiation”) with DENV replicon (listed as FAV) is recorded as “clear enhanced effect; also recorded: reduction in the EC50 value”.
In data set [1] (setting [5]), `CC(C)C(=O)OC[C@H]1O[C@@H](n2ccc(NO)nc2=O)[C@H](O)[C@@H]1O` [Molnupiravir] displayed a CC50 at 3 days of 53 µM. Further, the 50% effective concentration (EC50) in the data set on DENV replicon (setting [6]) is 6.2 µM.
Turning to `NC(=O)c1ncc[nH]c1=O` [Prdg T-1105], the CC50 at 3 days was > 167 µM in data set [1] (setting [7]); > 500 µM in data set [1] (setting [5]); > 167 µM in data set [1] (setting [8]); > 167 µM in data set [1] (setting [9]); > 167 µM in data set [1] (setting [10]); > 167 µM in data set [1] (setting [11]). Besides, the EC50 in the data set with DENV replicon (setting [12]) came to 15 µM; with DENV replicon (setting [6]), 13 µM; with DENV replicon (setting [8]) it was 11 µM; in the data set on DENV replicon (setting [9]), 8.3 µM; with DENV replicon (setting [10]) it was 10 µM; with DENV replicon (setting [11]), 9.6 µM. Also, the “potentiation” value in the data set on DENV replicon is “strongly potentiated”.
As to `O=c1ccn([C@@H]2O[C@H](CO)[C@@H](O)[C@H]2O)c(=S)[nH]1` [2-thiouridine], the “antiviral activity, ZIKV reporter virus replication (in words)” value in data set [2] is listed as “observe antiviral activity”. Also, the “antiviral activity, DENV-induced cytopathic effects (in words)” value in data set [3] is listed as “observe antiviral activity”. Further, the CC50 at 3 days in data set [1] (setting [5]) was > 50 µM. Besides, the EC50 in the data set with DENV replicon (setting [6]) was > 50 µM. Further, the “anti-replicon activity (in words)” value in the data set on DENV replicon (compound alone, DENV BHK replicon cell line) is “we did not observe activity”.
The compound `CSc1ncnc2c1ncn2[C@@H]1O[C@H](CO)[C@@H](O)[C@H]1O` [Prdg 6MMPR, 6-methylmercaptopurine riboside] yielded a CC50 at 3 days in data set [1] (setting [5]) of 0.21 µM. In the data set with DENV replicon (setting [6]), this compound came in with a half-maximal effective concentration (EC50) of 0.21 µM.
With `O=c1cc[nH]c(=S)[nH]1` [Prdg 2-thiouracil, 2-thiouracil], the CC50 at 3 days in data set [1] (setting [5]) is > 50 µM. In addition, in the data set with DENV replicon (setting [6]), the half-maximal effective concentration (EC50) was > 50 µM.
In data set [1] (setting [5]), `O=c1cnn([C@@H]2O[C@H](CO)[C@@H](O)[C@H]2O)c(=O)[nH]1` [Prdg 6-azauridine, 6-azauridine] returned a CC50 at 3 days of 8.8 µM. Further, the EC50 with DENV replicon (setting [6]) is 1.9 µM.
On to `CSc1ncnc2c1ncn2[C@@H]1O[C@H](COC(=O)N(C)C)[C@@H](OC(=O)C(C)C)[C@H]1OC(=O)C(C)C` [Prdg 3], for which, in data set [1] (setting [5]), it took 2.4 µM to reach half-maximal cytotoxicity (CC50 at 3 days). In the data set on DENV replicon (setting [6]), this compound had a half-maximal effective concentration (EC50) of 2.3 µM.
Turning to `CSc1ncnc2c1ncn2[C@@H]1O[C@H](COC(=O)N(C)C)[C@@H](O)[C@H]1O` [Prdg 2], half-maximal cytotoxicity in data set [1] (setting [5]) (CC50 at 3 days) was put at 5.4 µM. Moreover, the EC50 in the data set on DENV replicon (setting [6]) was found to be 2.5 µM.
For `NC(=O)c1nc[nH]n1` [Ribavirin nucleobase], the CC50 at 3 days in data set [1] (setting [7]) is > 50 µM; in data set [1] (setting [5]), > 100 µM; in data set [1] (setting [8]), > 50 µM; in data set [1] (setting [9]), > 50 µM; in data set [1] (setting [10]), > 50 µM; in data set [1] (setting [11]), > 50 µM. Besides, the “toxicity of combination (in words)” value in data set [4] is recorded as “conferred some toxicity not shown by either compound alone”. For the same compound, the half-maximal effective concentration (EC50) came out at 5.7 µM with DENV replicon (setting [12]); 5.7 µM with DENV replicon (setting [6]); 3.4 µM with DENV replicon (setting [8]); 2.3 µM with DENV replicon (setting [9]); 0.88 µM in the data set with DENV replicon (setting [10]); 2.6 µM in the data set with DENV replicon (setting [11]). Further, in the data set with DENV replicon, the “potentiation” value is “can be potentiated”. Besides, the “anti-DENV activity (in words)” value with DENV was “similarly strong antiviral activity”; in the data set on DENV (listed as ribavirin nucleobase) it was “strong”. Further, the “cytotoxicity (in words)” value in the data set on DENV is listed as “considerably less cytotoxic than ribavirin”; in the data set on DENV (listed as ribavirin nucleobase), “non-cytotoxic”.
